Measured values as given in ChEMBL document CHEMBL1201862, “PubChem BioAssay data set” (2004).
Activity calls are given as the source filed them.

Legend:
Format in all cases: functional
CHO-K1 = assay: (§1) Counterscreen for antagonists of the orexin 1 receptor (OX1R; HCRTR1): Homogeneous time resolved fluorescence (HTRF)-based cell-based dose response assay to identify antagonists of the parental CHO-K1 cell line. [Related pubchem assays (depositor defined):AID434989, AID435008, AID463079, AID485270, AID492963, AID492964, AID492965, AID493232, AID504699, AID504701]; conditions: Cricetulus griseus
[1] = as §1, with “Fluorescence-based” for “Homogeneous time resolved fluorescence (HTRF)-based”, “cell-based high throughput” for “cell-based”, “CHO” for “CHO-K1”
[2] = target: T1, Orexin/Hypocretin receptor type 1 (Homo sapiens, UniProt O43613); assay: Homogeneous Time Resolved Fluorescence (HTRF)-based cell-based high throughput dose response assay for antagonists of the orexin 1 receptor (OX1R; HCRTR1). [Related pubchem assays (depositor defined):AID434989, AID435008, AID463079, AID485270, AID492963, AID492964, AID492965, AID493232, AID504717, AID504718]
T1 sequence (O43613 whole entry): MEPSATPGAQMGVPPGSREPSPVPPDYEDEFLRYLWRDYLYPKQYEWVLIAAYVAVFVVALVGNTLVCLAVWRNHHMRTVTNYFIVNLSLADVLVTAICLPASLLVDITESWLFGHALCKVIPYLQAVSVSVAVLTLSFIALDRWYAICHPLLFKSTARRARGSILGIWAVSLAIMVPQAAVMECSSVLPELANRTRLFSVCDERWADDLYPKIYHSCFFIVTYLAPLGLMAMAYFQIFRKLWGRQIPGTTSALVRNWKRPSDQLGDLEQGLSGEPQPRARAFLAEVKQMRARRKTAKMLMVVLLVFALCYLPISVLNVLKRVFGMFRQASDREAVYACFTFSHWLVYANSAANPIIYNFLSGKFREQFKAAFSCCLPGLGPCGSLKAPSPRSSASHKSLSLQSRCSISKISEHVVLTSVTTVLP

[3] = target: T1, Orexin/Hypocretin receptor type 1; assay: Fluorescence-based cell-based high throughput dose response assay for antagonists of the orexin 1 receptor (OX1R; HCRTR1). [Related pubchem assays (depositor defined):AID434989, AID435008, AID463079, AID485270, AID492963, AID492964, AID492965, AID493232, AID504717, AID504718]
Orexin receptor type 2 [4] = target: T2, Orexin receptor type 2 (Homo sapiens, UniProt O43614); assay: Counterscreen assay for antagonists of the orexin 1 receptor (OX1R; HCRTR1): Fluorescence-based cell-based dose response assay for antagonists of the orexin 2 receptor (OX2R; HCRTR2), run by assay provider.
T2 sequence (O43614 whole entry): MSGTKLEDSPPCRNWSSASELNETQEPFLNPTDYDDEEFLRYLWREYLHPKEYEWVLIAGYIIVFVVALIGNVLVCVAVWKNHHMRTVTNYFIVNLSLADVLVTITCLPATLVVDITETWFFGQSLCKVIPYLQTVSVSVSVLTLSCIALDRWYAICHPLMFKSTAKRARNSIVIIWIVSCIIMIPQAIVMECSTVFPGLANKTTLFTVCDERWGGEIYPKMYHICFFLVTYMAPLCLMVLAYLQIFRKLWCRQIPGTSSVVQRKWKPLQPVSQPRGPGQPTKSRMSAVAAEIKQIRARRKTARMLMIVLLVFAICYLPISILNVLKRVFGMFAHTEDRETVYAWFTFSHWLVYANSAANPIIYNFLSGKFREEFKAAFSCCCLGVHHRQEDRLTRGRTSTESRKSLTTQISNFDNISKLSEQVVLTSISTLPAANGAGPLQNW

Orexin receptor type 2 [5] = target: T2, Orexin receptor type 2; assay: Counterscreen assay for antagonists of the orexin 1 receptor (OX1R; HCRTR1): Homogeneous Time Resolved Fluorescence (HTRF)-based cell-based dose response assay for antagonists of the orexin 2 receptor (OX2R; HCRTR2), run by assay provider.
Caspase-3 [6] = target: T3, Caspase-3 (Homo sapiens, UniProt P42574)
T3 sequence (P42574 whole entry): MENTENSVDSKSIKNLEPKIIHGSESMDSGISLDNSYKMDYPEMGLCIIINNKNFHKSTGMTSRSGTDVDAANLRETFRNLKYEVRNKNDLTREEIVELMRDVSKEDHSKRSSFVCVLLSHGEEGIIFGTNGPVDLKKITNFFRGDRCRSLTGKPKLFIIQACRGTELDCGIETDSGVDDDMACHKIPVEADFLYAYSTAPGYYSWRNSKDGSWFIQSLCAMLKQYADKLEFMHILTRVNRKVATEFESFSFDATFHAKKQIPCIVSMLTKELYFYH

[7] = target: T4, Sentrin-specific protease 7 (Homo sapiens, UniProt Q9BQF6);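 note: Luminescence-based dose-response confirmation of ultra-high-throughput screening hits, measuring inhibition of SENP7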
T4 sequence (Q9BQF6 whole entry): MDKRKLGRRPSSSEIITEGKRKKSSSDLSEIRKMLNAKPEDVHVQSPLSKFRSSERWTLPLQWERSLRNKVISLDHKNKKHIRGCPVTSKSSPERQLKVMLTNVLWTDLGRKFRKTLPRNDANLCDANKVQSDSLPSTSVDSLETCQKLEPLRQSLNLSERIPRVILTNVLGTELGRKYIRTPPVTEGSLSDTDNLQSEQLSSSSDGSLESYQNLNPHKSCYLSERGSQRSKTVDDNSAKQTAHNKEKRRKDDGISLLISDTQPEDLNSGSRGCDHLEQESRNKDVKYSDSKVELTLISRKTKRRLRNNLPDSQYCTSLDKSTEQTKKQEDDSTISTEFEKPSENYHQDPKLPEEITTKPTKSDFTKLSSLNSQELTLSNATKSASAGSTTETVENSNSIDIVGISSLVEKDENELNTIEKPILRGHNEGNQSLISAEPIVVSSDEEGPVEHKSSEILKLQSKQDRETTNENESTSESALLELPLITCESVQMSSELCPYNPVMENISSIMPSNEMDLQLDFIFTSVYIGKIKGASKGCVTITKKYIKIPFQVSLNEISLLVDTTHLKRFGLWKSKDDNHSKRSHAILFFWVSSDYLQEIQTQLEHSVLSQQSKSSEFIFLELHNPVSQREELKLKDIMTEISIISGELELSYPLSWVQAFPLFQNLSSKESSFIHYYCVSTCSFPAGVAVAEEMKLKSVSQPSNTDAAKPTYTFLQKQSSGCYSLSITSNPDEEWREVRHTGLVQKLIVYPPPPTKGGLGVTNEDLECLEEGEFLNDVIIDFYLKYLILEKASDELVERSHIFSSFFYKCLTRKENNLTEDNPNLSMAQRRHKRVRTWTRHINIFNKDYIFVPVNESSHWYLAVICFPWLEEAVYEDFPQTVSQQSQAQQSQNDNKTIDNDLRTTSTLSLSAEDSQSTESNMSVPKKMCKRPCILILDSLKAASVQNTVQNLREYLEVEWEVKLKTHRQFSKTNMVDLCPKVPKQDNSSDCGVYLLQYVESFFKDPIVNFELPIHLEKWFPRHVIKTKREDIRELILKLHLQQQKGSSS

[8] = target: T5, Sentrin-specific protease 6 (Homo sapiens, UniProt Q9GZR1)
T5 sequence (Q9GZR1 whole entry): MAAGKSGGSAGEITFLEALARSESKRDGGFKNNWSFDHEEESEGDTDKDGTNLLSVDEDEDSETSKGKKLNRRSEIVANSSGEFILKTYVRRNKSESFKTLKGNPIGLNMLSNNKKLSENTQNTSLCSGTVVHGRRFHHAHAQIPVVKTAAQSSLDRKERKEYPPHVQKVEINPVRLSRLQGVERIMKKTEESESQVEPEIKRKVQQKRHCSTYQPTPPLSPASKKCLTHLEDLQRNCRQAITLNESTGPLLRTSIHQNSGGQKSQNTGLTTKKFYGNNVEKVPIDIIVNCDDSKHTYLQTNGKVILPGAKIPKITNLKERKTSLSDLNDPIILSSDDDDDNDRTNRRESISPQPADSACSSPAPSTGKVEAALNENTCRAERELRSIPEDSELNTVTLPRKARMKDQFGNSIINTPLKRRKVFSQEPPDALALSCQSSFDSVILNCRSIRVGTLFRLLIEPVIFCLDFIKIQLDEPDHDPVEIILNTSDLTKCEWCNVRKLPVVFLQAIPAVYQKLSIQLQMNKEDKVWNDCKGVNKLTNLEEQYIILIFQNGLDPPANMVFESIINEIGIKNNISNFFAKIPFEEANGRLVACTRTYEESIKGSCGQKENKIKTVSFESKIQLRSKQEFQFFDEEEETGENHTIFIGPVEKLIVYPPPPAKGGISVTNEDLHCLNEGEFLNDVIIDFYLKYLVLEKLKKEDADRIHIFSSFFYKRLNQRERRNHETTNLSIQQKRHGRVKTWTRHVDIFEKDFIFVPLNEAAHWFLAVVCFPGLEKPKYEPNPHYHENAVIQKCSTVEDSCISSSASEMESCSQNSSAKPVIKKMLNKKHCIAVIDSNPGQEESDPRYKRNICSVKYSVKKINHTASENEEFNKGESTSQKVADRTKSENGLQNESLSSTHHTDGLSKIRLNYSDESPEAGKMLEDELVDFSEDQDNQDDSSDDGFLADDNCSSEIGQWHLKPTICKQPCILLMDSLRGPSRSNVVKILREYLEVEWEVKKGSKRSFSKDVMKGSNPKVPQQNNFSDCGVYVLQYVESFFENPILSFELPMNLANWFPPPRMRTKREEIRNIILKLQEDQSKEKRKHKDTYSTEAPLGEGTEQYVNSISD

[9] = target: T6, Sentrin-specific protease 8 (Homo sapiens, UniProt Q96LD8);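 note: luminescence read-out of SENP8 inhibition, dose-response confirmation following an ultra-high-throughput screen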
T6 sequence (Q96LD8 whole entry): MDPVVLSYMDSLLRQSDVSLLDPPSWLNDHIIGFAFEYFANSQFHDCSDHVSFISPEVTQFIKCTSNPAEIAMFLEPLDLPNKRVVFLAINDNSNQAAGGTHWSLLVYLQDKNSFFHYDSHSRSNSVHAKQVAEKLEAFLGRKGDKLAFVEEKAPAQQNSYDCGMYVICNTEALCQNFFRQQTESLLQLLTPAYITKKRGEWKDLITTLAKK

Caspase-3 [10] = target: T3, Caspase-3; assay: SAR Analysis of small molecule inhibitors of Sentrin-specific proteases (SENPs) using a Caspase-3 Selectivity assay. [Related pubchem assays (depositor defined):AID2540, AID2599, AID434973, AID489001]
[11] = target: T5, Sentrin-specific protease 6; assay: SAR Analysis of small molecule inhibitors of Sentrin-specific protease 6 (SENP6) using a Luminescent assay. [Related pubchem assays (depositor defined):AID2582, AID2599]
[12] = target: T4, Sentrin-specific protease 7; assay: inhibition of human SENP7 cleavage activity – biochemical, luminescence, SAR follow-up (AID 504497)

IC50 (Caspase-3 [6])	IC50 [7]	IC50 [8]	IC50 (Caspase-3 [10])	IC50 [11]	IC50 [12]	SMILES	IC50 (CHO-K1)	IC50 [1]	IC50 [2]	IC50 [3]	IC50 (Orexin receptor type 2 [4])	IC50 (Orexin receptor type 2 [5])	IC50 [9]
						Cc1c(C(=O)Nc2ccc(N3CCOCC3)cc2)oc2ccccc12	> 66.2 µM (inactive)	> 49.8 µM (inactive)	0.277 µM (active)	1.46 µM (active)	> 88.8 µM (inactive)	> 50 µM (inactive)	
7.14 µM (active)	5.33 µM (active)	8.99 µM (active)	1.31 µM (active)	1.68 µM (active)	2.16 µM (active)	Fc1ccc(COc2ccc(C(=S)N3CCCC3)cc2)cc1							2.46 µM (active)
						O=C(N/N=C/c1c(Cl)[nH]c2ccccc12)c1sc2ccccc2c1Cl	> 66.2 µM (inactive)	> 49.7 µM (inactive)	2.14 µM (active)	3.23 µM (active)	> 88.8 µM (inactive)	6.88 µM (active)	
